Laboratory results from article PMC12543283, “TastepepAI: An artificial intelligence platform for taste peptide de novo design” (PLOS Computational Biology, 2025).
Ends that are not written are not given here.

Legend:
[1] = tested on: human umbilical vein endothelial cells (HUVEC)
[2] = Electronic tongue analysis (Taste-Sensing System SA 402B); set-up: unit not given here; details: reference solution 30 mM KCl + 0.3 mM tartaric acid as baseline, first measurement excluded; for Umami: sensor AAE; for Umami / Bitter / Sweet: detection threshold 0, room temperature; for Umami / Bitter / Sour / Salty: four replicates; for Sour: detection threshold -13, room temperature; for Salty: detection threshold -6, room temperature; for Sweet: measured five times
Method in brief: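 Samples were tested at 0.1 and 1.0 mg/mL on an SA 402B e-tongue fitted with sourness, saltiness, bitterness, sweetness and umami sensors, with 30 mM KCl/0.3 mM tartaric acid as reference and baseline. Thresholds were −13 for sour, −6 for salty and 0 for the rest. Runs at room temperature: four replicates, five for sweetness, first reading discarded.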

[3] = tested on: human pancreatic ductal epithelial cells (HPNE)
[4] = tested on: human embryonic kidney cells (HEK293T)
[5] = tested on: human bronchial epithelial cells (BEAS-2B)

| Substance | Average cell viability, HUVEC [1] | Cell viability, HUVEC, Data1 [1] | Cell viability, HUVEC, Data2 [1] | Cell viability, HUVEC, Data3 [1] | Umami ([2]; peptide 0.1 mg/mL) | Umami ([2]; peptide 1 mg/mL) | Bitter ([2]; sensor C00, peptide 0.1 mg/mL) | Bitter ([2]; sensor C00, peptide 1 mg/mL) | Sour ([2]; sensor CA0, peptide 0.1 mg/mL) | Sour ([2]; sensor CA0, peptide 1 mg/mL) | Salty ([2]; sensor CT0, peptide 0.1 mg/mL) | Salty ([2]; sensor CT0, peptide 1 mg/mL) | Sweet ([2]; sensor GL1, peptide 0.1 mg/mL) | Sweet ([2]; sensor GL1, peptide 1 mg/mL) | Average cell viability, HPNE [3] | Cell viability, HPNE, Data1 [3] | Cell viability, HPNE, Data2 [3] | Cell viability, HPNE, Data3 [3] | Average cell viability, HEK293T [4] | Cell viability, HEK293T, Data1 [4] | other results |
| --- | --- | --- | --- | --- | --- | --- | --- | --- | --- | --- | --- | --- | --- | --- | --- | --- | --- | --- | --- | --- | --- |
| SVLEFS [TaPep52] | 102.10 | 102.10 | 88.93 | 115.27 | 2.84 | -2.08 | 7.49 | 4.10 | -6.24 | 5.72 | -20.56 | 3.13 | 9.54 | -1.51 | 109.12 | 112.31 | 112.11 | 102.93 | 99.31 | 102.87 | Cell viability, HEK293T, Data2 [4]: 97.95; Cell viability, HEK293T, Data3 [4]: 97.10; Average cell viability, BEAS-2B [5]: 105.65; Cell viability, BEAS-2B, Data1 [5]: 105.38; Cell viability, BEAS-2B, Data2 [5]: 103.19; Cell viability, BEAS-2B, Data3 [5]: 108.37 |
| TAEQVA [TaPep33] | 104.47 | 106.25 | 114.32 | 92.84 | 1.93 | -0.93 | 7.77 | 3.28 | -4.09 | 10.86 | -19.69 | 10.92 | 8.49 | -5.32 | 106.02 | 118.30 | 86.46 | 113.31 | 102.24 | 97.67 | Cell viability, HEK293T, Data2 [4]: 105.05; Cell viability, HEK293T, Data3 [4]: 104.01; Average cell viability, BEAS-2B [5]: 98.57; Cell viability, BEAS-2B, Data1 [5]: 90.33; Cell viability, BEAS-2B, Data2 [5]: 99.90; Cell viability, BEAS-2B, Data3 [5]: 105.48 |
| TDPELV [TaPep60] | 102.29 | 91.72 | 106.41 | 108.73 | 1.33 | -5.30 | 7.64 | 3.00 | -2.65 | 12.51 | -20.71 | 9.00 | 5.70 | -9.69 | 111.81 | 114.61 | 113.81 | 107.02 | 103.06 | 105.62 | Cell viability, HEK293T, Data2 [4]: 98.99; Cell viability, HEK293T, Data3 [4]: 104.57; Average cell viability, BEAS-2B [5]: 110.77; Cell viability, BEAS-2B, Data1 [5]: 105.88; Cell viability, BEAS-2B, Data2 [5]: 117.95; Cell viability, BEAS-2B, Data3 [5]: 108.47 |
| TIDDELR [TaPep26] | 104.87 | 103.54 | 102.74 | 108.33 | 1.71 | -4.35 | 7.26 | 3.16 | -3.53 | 10.93 | -21.44 | 8.38 | 5.51 | -3.99 | 94.58 | 84.76 | 94.94 | 104.03 | 99.46 | 96.81 | Cell viability, HEK293T, Data2 [4]: 98.23; Cell viability, HEK293T, Data3 [4]: 103.34; Average cell viability, BEAS-2B [5]: 102.16; Cell viability, BEAS-2B, Data1 [5]: 95.61; Cell viability, BEAS-2B, Data2 [5]: 106.68; Cell viability, BEAS-2B, Data3 [5]: 104.19 |
| TPRKQ [TaPep37] | 107.80 | 111.04 | 111.52 | 100.82 | 1.93 | -5.88 | 7.34 | 3.28 | -4.03 | 12.49 | -13.82 | 15.18 | 4.01 | -5.26 | 94.98 | 108.02 | 84.26 | 92.65 | 100.47 | 100.50 | Cell viability, HEK293T, Data2 [4]: 96.44; Cell viability, HEK293T, Data3 [4]: 104.48; Average cell viability, BEAS-2B [5]: 100.23; Cell viability, BEAS-2B, Data1 [5]: 95.41; Cell viability, BEAS-2B, Data2 [5]: 110.47; Cell viability, BEAS-2B, Data3 [5]: 94.82 |
| TQEVVN [TaPep25] | 92.52 | 90.21 | 89.33 | 98.03 | 1.53 | -3.13 | 7.01 | 3.50 | -6.12 | 7.84 | -23.02 | 5.51 | 8.12 | -3.53 | 92.98 | 92.95 | 81.96 | 104.03 | 100.16 | 103.15 | Cell viability, HEK293T, Data2 [4]: 98.42; Cell viability, HEK293T, Data3 [4]: 98.90; Average cell viability, BEAS-2B [5]: 110.07; Cell viability, BEAS-2B, Data1 [5]: 118.34; Cell viability, BEAS-2B, Data2 [5]: 103.39; Cell viability, BEAS-2B, Data3 [5]: 108.47 |
| VAEDLL [TaPep8] | 103.81 | 109.13 | 93.96 | 108.33 | 2.66 | -4.08 | 7.50 | 1.63 | -5.63 | 8.25 | -22.00 | 7.96 | 9.31 | -4.65 | 106.12 | 109.62 | 99.23 | 109.52 | 101.07 | 102.68 | Cell viability, HEK293T, Data2 [4]: 95.30; Cell viability, HEK293T, Data3 [4]: 105.24; Average cell viability, BEAS-2B [5]: 103.39; Cell viability, BEAS-2B, Data1 [5]: 114.76; Cell viability, BEAS-2B, Data2 [5]: 90.53; Cell viability, BEAS-2B, Data3 [5]: 104.89 |
| VARLEA [TaPep9] | 96.43 | 97.15 | 102.50 | 89.65 | 2.67 | -2.73 | 7.95 | 2.75 | -6.31 | 8.17 | -18.92 | 12.49 | 8.92 | -4.48 | 104.39 | 117.30 | 93.74 | 102.13 | 105.62 | 103.06 | Cell viability, HEK293T, Data2 [4]: 112.15; Cell viability, HEK293T, Data3 [4]: 101.64; Average cell viability, BEAS-2B [5]: 112.30; Cell viability, BEAS-2B, Data1 [5]: 110.77; Cell viability, BEAS-2B, Data2 [5]: 115.45; Cell viability, BEAS-2B, Data3 [5]: 110.67 |
| VEKVE [TaPep67] | 100.75 | 112.48 | 97.95 | 91.80 | 1.99 | -4.10 | 7.39 | 4.01 | -4.19 | 10.40 | -19.59 | 9.82 | 6.41 | -3.54 | 96.14 | 105.92 | 99.23 | 83.26 | 100.22 | 99.37 | Cell viability, HEK293T, Data2 [4]: 105.99; Cell viability, HEK293T, Data3 [4]: 95.30; Average cell viability, BEAS-2B [5]: 110.54; Cell viability, BEAS-2B, Data1 [5]: 94.32; Cell viability, BEAS-2B, Data2 [5]: 118.94; Cell viability, BEAS-2B, Data3 [5]: 118.34 |
